The values below come from patent publication US20140377289A1, “Metallodrugs Having Improved Pharmacological Properties, and Methods of Manufacture and Use Thereof” (MetalloPharm, LLC, priority 2011, published 2014).

Where two headings read alike, the source gives them in different places. Where a SMILES comes first, the peptide text is derived from it. A value given as a limit tells only on which side of the number the result lay.

In one data set the test system is pUC19 plasmid DNA. As to the kind of experiment: DNA nicking and linearization nuclease assay. Type of data set: biochemical. Particulars: 10 μM base pairs pUC19, ascorbate/peroxide; for klin for DNA linearization, without attached Rev (M-chelate) / knick for DNA nicking, without attached Rev (M-chelate): — = Below detection limit.
The target in data set [1] is T1, Recombinant human somatic ACE (sACE-1) (Homo sapiens, UniProt P12821).
T1 construct: sACE-1: Leu30-Leu1261, with C-terminal His tag; His tag (C); purchased R&D Systems; host or cells: NS0-derived murine myeloma cell line
The data set is described as follows: Determination of IC50 values, sACE-1 fluorogenic substrate cleavage. Type of data set: biochemical.

The next data set in a line: in vitro. The settings on record: human.
Data set [2] relates to HCV RNA replicon in ET (luc-ubi-neo/ET) Huh7 cells. Particulars: read-out: antiviral IC50; 72 h, replicon-derived Luc activity.
The target of data set [3] is T1, Recombinant human somatic ACE (sACE-1). As to the kind of experiment: Time-dependent inactivation of sACE-1. The settings on record: pH 7.4, 37° C. Type of data set: biochemical. Here is the method: Time-Dependent Inactivation of sACE-1. sACE-1 and each M-chelate-lisinopril complex (prepared in the absence of Zn^2+) were preincubated for 20 min at 37° C. in a buffer containing 50 mM HEPES, 300 mM NaCl, 10 μM ZnCl2, 0.05% Brij35, pH 7.4, and after 20 min, coreactants ascorbate and/or H2O2 (or no coreactants) were added to initiate each reaction. Reaction concentrations were 1 nM sACE-1, a concentration of M-chelate-lisinopril that gave approximately 80% activity (calculated by use of equation (1), where A=80%; concentrations listed in the table in paragraph [00132]), and 1 mM ascorbate and/or H2O2 (or no coreactants). Each time-dependent ACE-inactivation reaction proceeded at 37° C. for a period of 2 h, and at each specific intervening time point, a 68.6 μL, aliquot of the reaction mixture containing sACE-1 was mixed with 1.4 μL of 0.5 mM fluorogenic substrate in a fluorescence cuvette. Substrate cleavage by sACE-1 was immediately monitored by real-time fluorimetry at 37° C., with excitation at 320 nm and emission at 405 nm. Initial rates were determined for each time point for the time-dependent inactivation of sACE-1, and these initial rates were expressed as a percentage (% maximal activity) of the average of several initial rates for uninhibited substrate cleavage by sACE-1, determined in the absence of both M-chelate-lisinopril complexes and coreactants. Plots of % maximal activity vs. time were fit to a first-order exponential decay model, and initial rates of inactivation of sACE-1 by M-chelate-lisinopril complexes were determined. Second-order rate constants for inactivation of sACE-1 were obtained using equation (2), where k2 is the second-order rate constant (M^−1 min^−1), R is the initial rate of enzyme inactivation (M/min) after subtraction of the corresponding background rate in the absence of M-chelate-lisinopril complex, but with the same coreactants, [I] is the concentration of M-chelate-lisinopril complex used (M), and [E] is the concentration of sACE-1 used (1×10^−9 M). Control experiments with M-chelate complexes lacking attached lisinopril were performed in the same manner and conditions used for the respective M-chelate-lisinopril complexes.

Data set [4] concerns 5′ fluorescein end-labeled RRE stem IIB RNA (Fl-RNA). The data set is described as follows: PAGE analysis of RRE RNA cleavage kinetics. Particulars: 100 nM complex, 100 nM Fl-RNA, 1 mM H2O2, 1 mM ascorbate, 37° C.; initial rate. The data set is classed as biochemical, HIV. Here is the method:
PAGE Analysis of RRE RNA Cleavage Kinetics. Reactions of 100 nM metal-chelate-Rev (1:1.2 M:chelate ratio), 1 mM H2O2, 1 mM ascorbate, and 100 nM 5′ fluorescein end-labeled RRE stem IIB RNA (Fl-RNA) were conducted at 37° C. in separate tubes, each containing 20 μL total reaction volume—one tube corresponding to one gel lane. A buffer consisting of 20 mM HEPES, 100 mM NaCl, pH 7.4 was used in all experiments. Fl-RNA was heated to 90° C. and allowed to cool to, but not below 37° C. prior to reaction, and the Fl-RNA was immediately added to each pre-incubated tube. Reactants were added to pre-incubated tubes at time-points corresponding to the beginning of each reaction, which were performed in a dark incubator. Reaction start times were staggered and all reactions were quenched at the same time by addition of a quenching/gel-loading buffer solution (80 μL/tube) consisting of standard 1× tris-EDTA-acetic acid buffer, 8M urea, 20 mM HEPES, 100 mM NaCl. The tubes were then heated to 90° C. for 5 min and a 5 μL aliquot from each tube was then loaded into its corresponding lane of a 10% polyacrylamide 8 M urea gel, resulting in […] Fl-RNA per lane. Gel electrophoresis was performed at 250 V for 1.5 h. Gels were analyzed on a GE Typhoon variable mode imager using 488 nm excitation and a 526 nm single pass emission filter. Bands were quantified with the program ImageQuant. Loss of initial Fl-RNA reactant bands were fit to a first-order reaction equation using the software Origin, and observed rate constants and initial rates were determined. Control reactions with respective metal-chelates lacking the Rev domain were conducted in the same manner.

The subject of data set [5] is AP-RNA (aminopurine-labeled RRE RNA). As to the kind of experiment: Reaction kinetics monitored by real-time fluorimetry, AP-RNA. The data set is classed as biochemical, HIV. Particulars: 100 nM complex, 100 nM AP-RNA, 1 mM H2O2, 1 mM ascorbate, 37° C.; initial rate. Here is the method:
Reaction Kinetics Monitored by Real-Time Fluorimetry. Reactions of 100 nM metal-chelate-Rev (1:1.2 M:chelate ratio), 1 mM H2O2, 1 mM ascorbate, and 100 nM AP-RNA were conducted at 37° C. in a fluorescence cuvette in a Varian Cary Eclipse fluorescence spectrophotometer. Reactions were monitored using excitation at 310 nm (SW=10 nm) and emission at 371 nm (SW=10 nm). Prior to reaction the AP-RNA was pre-heated to 90° C. for 5 min and then added to the pre-warmed 37° C. cuvette. The metal-chelate-Rev complexes were added after 5 min, and reactions were initiated by the addition of H2O2 and ascorbate after an additional 10 min. Each resulting fluorescence trace was fit to a first-order reaction equation using the software Origin, and observed rate constants and initial rates were determined; the magnitude of fluorescence change that corresponded to complete reaction was established by averaging the magnitudes of fluorescence change from many trials known to react to completion. All concentrations and buffer were identical to those used in the PAGE analysis assay with Fl-RNA. Control reactions with respective metal-chelates lacking the Rev domain were conducted in the same manner.

A further data set deals with HIV RRE RNA (AP-RRE RNA). Type of data set: binding. Particulars: for Kd: 37° C., pH 7.4. Here is the method:
Determination of Dissociation Constants. […] A 660 μL volume of 100 nM AP-RRE RNA was first heated to 90° C. for 5 min and then allowed to cool to, but not below, the titration temperature (37° C.). A 650 μL volume of this sample was added to the pre-thermostatted cuvette. After 10 min of temperature equilibration a solution of 5 μM M-chelate-Rev complex was titrated into the solution. After each addition, 100 μL of the solution was mixed by gentle pipeting to ensure complete mixing. The fluorescence change associated with the change of environment of the aminopurine label was monitored following peptide binding. Titration response curves were dilution and background corrected and normalized to initial intensity values. Curves were fit to a biphasic equation (4) for two independent binding sites where Fobs is the total observed fluorescence intensity, P0 is the total concentration of added M-chelate-Rev, F0, F1, and F2 are fitting parameters corresponding to the intensities of the unbound, singly-bound, and doubly-bound AP-RNA, respectively, R0 is the initial concentration of AP-RNA, and KD1 and KD2 are dissociation constants for binding at the high- and low-affinity sites, respectively. All binding experiments were performed in a binding buffer composed of 20 mM HEPES, 100 mM NaCl, pH 7.4.

In data set [6] the target is T2, HCV protease (Hepatitis C virus genotype 1a, UniProt P27958). As to the kind of experiment: biochemical. The data set is classed as binding. Particulars: apparent binding affinity. An excerpt: (§1) This stems from the relationship between affinity and the on/off rate constants for binding (KA=kon/koff), where higher affinity binding is promoted by larger kon and/or smaller koff values. By contrast, efficient catalytic turnover requires koff values that are preferably no smaller than the rate constant for the inactivation chemistry (kcat), to ensure the availability of metallodrug catalyst for new target molecules, and will be best promoted by relatively high values for both kon and koff, which will result in weaker KA values.
(§2) Apparent binding affinities and rates of inactivation for HCV protease by several metallopeptide derivatives incorporating a Cu-GGH metal binding domain and C-terminal HCV protease targeting peptides were prepared and their affinity and reactivity were evaluated under in the presence of various redox reagents. Affinities lay within the range of 10^4M^−1 and 5×10^8 M^−1.

The target in data set [7] is T2, HCV protease. Type of data set: biochemical.
Description: as §1, §2

T1 sequence (P12821 30-1261): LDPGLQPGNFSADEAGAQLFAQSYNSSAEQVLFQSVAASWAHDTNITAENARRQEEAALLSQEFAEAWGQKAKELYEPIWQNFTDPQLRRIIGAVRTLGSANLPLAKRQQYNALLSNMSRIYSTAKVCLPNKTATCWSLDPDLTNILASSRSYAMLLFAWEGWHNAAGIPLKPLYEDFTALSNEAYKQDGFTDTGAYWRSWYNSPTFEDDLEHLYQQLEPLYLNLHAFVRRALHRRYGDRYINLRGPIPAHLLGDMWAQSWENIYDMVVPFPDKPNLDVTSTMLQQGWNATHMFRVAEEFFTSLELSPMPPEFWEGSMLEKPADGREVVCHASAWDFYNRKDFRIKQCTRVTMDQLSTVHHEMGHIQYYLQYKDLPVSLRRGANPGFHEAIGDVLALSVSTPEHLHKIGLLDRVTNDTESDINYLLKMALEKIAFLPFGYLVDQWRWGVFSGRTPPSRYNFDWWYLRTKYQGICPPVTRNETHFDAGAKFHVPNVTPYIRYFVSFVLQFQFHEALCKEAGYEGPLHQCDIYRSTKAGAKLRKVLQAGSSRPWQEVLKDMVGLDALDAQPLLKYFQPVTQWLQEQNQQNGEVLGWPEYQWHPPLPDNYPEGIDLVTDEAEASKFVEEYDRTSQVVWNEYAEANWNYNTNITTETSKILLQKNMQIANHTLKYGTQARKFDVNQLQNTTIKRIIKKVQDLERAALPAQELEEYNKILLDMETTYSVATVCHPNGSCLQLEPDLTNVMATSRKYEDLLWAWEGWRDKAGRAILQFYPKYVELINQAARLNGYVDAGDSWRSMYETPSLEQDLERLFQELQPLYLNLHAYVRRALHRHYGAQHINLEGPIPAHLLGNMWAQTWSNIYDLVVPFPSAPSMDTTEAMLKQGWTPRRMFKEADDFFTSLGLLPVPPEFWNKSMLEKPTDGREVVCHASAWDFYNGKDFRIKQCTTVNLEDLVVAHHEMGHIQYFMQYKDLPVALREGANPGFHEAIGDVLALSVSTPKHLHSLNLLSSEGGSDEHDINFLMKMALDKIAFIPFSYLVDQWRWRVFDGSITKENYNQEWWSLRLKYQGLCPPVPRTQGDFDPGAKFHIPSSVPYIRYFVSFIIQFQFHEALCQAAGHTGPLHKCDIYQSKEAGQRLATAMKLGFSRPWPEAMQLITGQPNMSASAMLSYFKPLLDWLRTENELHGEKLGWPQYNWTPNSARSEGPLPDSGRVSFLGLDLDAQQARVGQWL
T2 sequence (P27958 1027-1208, other chains not shown): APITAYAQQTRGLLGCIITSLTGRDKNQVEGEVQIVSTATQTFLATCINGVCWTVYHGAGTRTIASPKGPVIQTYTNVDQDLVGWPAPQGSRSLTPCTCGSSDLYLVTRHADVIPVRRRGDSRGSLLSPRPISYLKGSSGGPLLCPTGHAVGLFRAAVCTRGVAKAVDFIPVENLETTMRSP

For the molecule `O=C([O-])CN(CC(=O)[O-])CC(=O)O.[Cu+2]` [Cu-NTA], in the data set with pUC19 plasmid DNA, the “klin for DNA linearization, without attached Rev (M-chelate)” value amounted to 0.0032 ± 0.0004 min⁻¹ and the “knick for DNA nicking, without attached Rev (M-chelate)” value came out at 0.148 ± 0.007 min⁻¹. The IC50 (as a rule, the concentration at which inhibition is half-maximal) in data set [1] (1 nM sACE-1, 20 min preincubation, 37° C., pH 7.4, read-out: IC50's) was 36 µM.

Regarding `CC[C@H](C)[C@H](NC(=O)[C@H](CCCCN)NC(=O)[C@H](C)NC(=O)[C@H](CCC(=O)O)NC(=O)[C@H](CC(C)C)NC(=O)[C@H](C)NC(=O)[C@H](C)N)C(=O)N[C@@H](CS)C(=O)N[C@@H](Cc1c[nH]cn1)C(=O)N[C@@H](CCC(N)=O)C(=O)N[C@H](C(=O)N[C@@H](CCC(=O)O)C(=O)N[C@@H](Cc1ccc(O)cc1)C(=O)N[C@@H](Cc1ccc(O)cc1)C(=O)N[C@@H](Cc1ccccc1)C(=O)NCC(=O)N[C@@H](CC(=O)O)C(=O)N[C@@H](Cc1ccccc1)C(N)=O)[C@@H](C)CC` [reference compound] (H-AALEAKICHQIEYYFGDF-NH2), the CC50 at 72 h in the data set “in vitro” is above 100 µM. Moreover, the IC50 in [2] is above 100 µM.

As for `NCC(=O)NCC(=O)N[C@@H](Cc1c[nH]cn1)C(=O)O` [Cu-GGH] (H-Gly-Gly-His-OH), the “klin for DNA linearization, without attached Rev (M-chelate)” value in the data set on pUC19 plasmid DNA was found to be 0.0012 ± 0.0002 min⁻¹. Further, the “knick for DNA nicking, without attached Rev (M-chelate)” value in the data set with pUC19 plasmid DNA stood at 0.06 ± 0.01 min⁻¹. Moreover, the kinact/KI in [3] (pH 7.4, read-out: Second order rate constant for inactivation of sACE-1, M-chelate without lisinopril, Ascorbate + H2O2) is 167 M⁻¹ s⁻¹; in data set [3] (pH 7.4, read-out: Second order rate constant for inactivation of sACE-1, M-chelate without lisinopril, Ascorbate), below 16.7 M⁻¹ s⁻¹; in data set [3] (pH 7.4, read-out: Second order rate constant for inactivation of sACE-1, M-chelate without lisinopril, H2O2), below 33.3 M⁻¹ s⁻¹. Also, in [1], the IC50 stood at 17 µM.

As for “Cu complex of KGHK-Rev, KGHKTRQARRNRRRRWRERQR-NH2 [Cu-KGHK-Rev]”, the “Fl-RNA Cleavage Rate” value in [4] worked out at 0.060 ± 0.005 nM/min. The “klin for DNA linearization, with attached Rev (M-chelate-REV)” value in the data set on pUC19 plasmid DNA (100 nM M-chelate-Rev) came to 0.0062 ± 0.0006 min⁻¹. For the same molecule, the “knick for DNA nicking, with attached Rev (M-chelate-REV)” value in the data set with pUC19 plasmid DNA (100 nM M-chelate-Rev) was 0.17 ± 0.04 min⁻¹. Besides, in [5], the “AP-RNA Modification Rate” value came to 0.511 ± 0.003 nM/min. For the same molecule, the KA1 with HIV RRE RNA (AP-RRE RNA) (high-affinity RRE RNA site) was 7.7 10^8 M^−1. For the same molecule, the Kd on HIV RRE RNA (AP-RRE RNA) (high-affinity RRE RNA site, read-out: KD1) turned out to be 0.0013 ± 0.0005 µM; at HIV RRE RNA (AP-RRE RNA) (low-affinity RRE RNA site, read-out: KD2) it was 0.148 ± 0.005 µM. The KA2 with HIV RRE RNA (AP-RRE RNA) (low-affinity RRE RNA site) is 0.066 10^8 M^−1.

With Cu-GGHGDEMEEC, on HCV protease [6], the KA turned out to be 48000 M⁻¹. Moreover, at HCV protease [7] (in the presence of ascorbate/O2), the “rate constant for inactivation kinact (catalytic efficiency)” value was around 1.6 h⁻¹. Also, the kinact (as a rule, the rate constant of inactivation at saturating inhibitor) on HCV protease [7] (in the presence of various redox reagents) is 0.04 min⁻¹.

Turning to `N=C(N)NCCC[C@@H](NC(=O)[C@@H](N)Cc1ccc(O)cc1)C(=O)N[C@@H](Cc1ccccc1)C(=O)N[C@@H](CCCCN)C(N)=O` [YrFK, reference compound], the CC50 at 72 h in the data set “in vitro” was above 100 µM. In addition, the half-inhibitory concentration (IC50) in data set [2] was above 100 µM.

`CC[C@H](C)[C@H](NC(=O)[C@H](CC(C)C)NC(=O)[C@H](CC(C)C)NC(=O)[C@H](CC(=O)O)NC(=O)[C@@H](NC(=O)[C@H](CCC(=O)O)NC(=O)[C@H](CCCCN)NC(=O)[C@H](Cc1ccc(O)cc1)NC(=O)[C@@H](N)CCCCN)[C@@H](C)O)C(=O)N[C@@H](CC(C)C)C(=O)N[C@@H](Cc1ccccc1)C(=O)N[C@@H](CCCCN)C(=O)N[C@@H](CC(=O)O)C(=O)N[C@@H](CC(=O)O)C(=O)N[C@@H](Cc1ccc(O)cc1)C(=O)N[C@@H](Cc1ccccc1)C(=O)N[C@@H](C)C(=O)N[C@@H](CCCCN)C(=O)N[C@@H](CCCCN)C(=O)N[C@@H](CC(N)=O)C(=O)N[C@@H](CCC(=O)O)C(=O)N[C@@H](CCC(=O)O)C(=O)N[C@@H](CCCNC(=N)N)C(=O)N[C@@H](CCCCN)C(N)=O` [reference compound] (H-KYKETDLLILFKDDYFAKKNEERK-NH2) displayed a CC50 at 72 h in “in vitro” above 100 µM. Further, the half-inhibitory concentration (IC50) in [2] is above 100 µM.
